Where two headings read alike, the source gives them in different places.
Columns and labels:
Acute toxicity (DL 50) = details: in vivo
[1] = test system: rat spontanément hypertendu (S.H.R.); assay: Antihypertensive activity in the spontaneously hypertensive rat (SHR); format: in vivo; details: for minimal effective dose: Rattus norvegicus, read-out: Activité anti-hypertensive SHR Dose minimale active
souris [2] = assay: Potentiation of barbiturate sleep; format: in vivo; details: I.P.
souris [3] = assay: Oxotremorine test; format: in vivo; details: à forte dose
souris [4] = assay: Antagonism of amphetamine hypermotility; format: in vivo; details: I.P.
rat normotendu = assay: Cardiovascular effects in the normotensive rat; format: in vivo; details: 50 mg.kg^-1 I.P.
rat = assay: Anti-inflammatory activity, carrageenan test; format: in vivo; details: I.P.
souris [5] = assay: Yohimbine test; details: in vivo
souris [6] = assay: Analgesic activity, hot plate; format: in vivo; details: I.P.
souris [7] = assay: Analgesic activity, P.B.Q. test; details: in vivo
souris [8] = assay: Hypothermia; format: in vivo; details: I.P.
souris [9] = assay: Apomorphine test; details: in vivo
souris [10] = assay: Spontaneous motility; format: in vivo; details: I.P.
souris [11] = assay: Exploratory activity; format: in vivo; details: Mus musculus, ip; I.P.; read-out: diminue l'activité d'exploration D.E.50
souris [12] = assay: Motor incoordination; format: in vivo; details: I.P.

With `CSCC(=O)NN=C(C)c1ccccc1Cl` [Exemple 8, (méthylthio-2 acétyl)-1 (orthochlorophényl-1 éthylidène-1)-2 hydrazine] the LD50 (Acute toxicity (DL 50); ip, I.P.) was over 400 mg/kg and the minimal effective dose ([1]; ip, I.P.) was 12.5 mg/kg.
In the case of `CC(C)(O)C(=O)NN=Cc1ccc(Cl)cc1` [1c, reference compound], the LD50 (Acute toxicity (DL 50); ip, I.P.) is reported as 660 mg/kg and the “Activité anti-hypertensive SHR Dose minimale active” value ([1]; route not given) is reported as “inactif”.
With `CC(=NNC(=O)CC(C)(C)O)c1ccccc1Cl` [1e, reference compound] the LD50 (Acute toxicity (DL 50); ip, I.P.) was 227 mg/kg and the “Activité anti-hypertensive SHR Dose minimale active” value ([1]; route not given) was “inactif”.
`CCCCC(=NNC(=O)C(C)(C)O)c1ccccc1Cl` [Exemple 26, (hydroxy-2 isobutyroyl)-1 (chloro-2 phényl-1 pentylidène-1)-2 hydrazine] gave an LD50 (Acute toxicity (DL 50); ip, I.P.) of over 400 mg/kg and a minimal effective dose ([1]; ip, I.P.) of 6.25 mg/kg.
In the case of `CC(C)(O)C(=O)NN=Cc1ccccc1Cl` [1a, reference compound], the LD50 (Acute toxicity (DL 50); ip, I.P.) is reported as 490 mg/kg and the “Activité anti-hypertensive SHR Dose minimale active” value ([1]; route not given) is reported as “inactif”.
With `CC(C)(O)CC(=O)NN=Cc1ccccc1Cl` [1d, reference compound] the LD50 (Acute toxicity (DL 50); ip, I.P.) was 433 mg/kg and the “Activité anti-hypertensive SHR Dose minimale active” value ([1]; route not given) was “inactif”.
For `NCC(=O)NN=Cc1ccccc1Cl` [7a, reference compound], the LD50 (Acute toxicity (DL 50); ip, I.P.) was 360 mg/kg and the “Activité anti-hypertensive SHR Dose minimale active” value ([1]; route not given) was “inactif”.
In the case of `COCC(=O)NN=Cc1ccccc1Cl` [6a, reference compound], the LD50 (Acute toxicity (DL 50); ip, I.P.) is reported as 477 mg/kg and the “Activité anti-hypertensive SHR Dose minimale active” value ([1]; route not given) is reported as “inactif”.
Molecule `CCC(=NNC(=O)C(C)(C)O)c1ccccc1Cl` [Exemple 16, (hydroxy-2 isobutyroyl)-1 (orthochlorophényl-1 propylidène-1)-2 hydrazine] has an LD50 (Acute toxicity (DL 50); ip, I.P.) of 179 mg/kg and a minimal effective dose ([1]; ip, I.P.) of 6.25 mg/kg.
`CC(=NNC(=O)CO)c1ccccc1Cl` [Exemple 4, (hydroxy-2 acétyl)-1 (orthochlorophényl-1 éthylidène-1)-2 hydrazine] showed an LD50 (Acute toxicity (DL 50); ip, I.P.) of 583 mg/kg and a minimal effective dose ([1]; route not given) of 3.13 mg/kg.
For `CC(O)C(=O)NN=Cc1ccccc1Cl` (stereo not shown) [3a, reference compound], the LD50 (Acute toxicity (DL 50); route not given) was 300 mg/kg and the “Activité anti-hypertensive SHR Dose minimale active” value ([1]; route not given) was “inactif”.
For `NC(=O)C(=O)NN=Cc1ccccc1Cl` [9a, reference compound], the LD50 (Acute toxicity (DL 50); ip, I.P.) was over 400 mg/kg and the “Activité anti-hypertensive SHR Dose minimale active” value ([1]; route not given) was “inactif”.
In the case of `CC(=NNC(=O)C(C)(C)O)c1ccc(Cl)cc1` [1b, reference compound], the LD50 (Acute toxicity (DL 50); ip, I.P.) is reported as 150 mg/kg and the “Activité anti-hypertensive SHR Dose minimale active” value ([1]; route not given) is reported as “inactif”.
For `CC(=NNC(=O)C(C)(C)O)c1ccccc1Cl` [Exemple 1, (hydroxy-2 isobutyroyl)-1 (orthochlorophényl-1 éthylidène-1)-2 hydrazine], the “potentialise le sommeil barbiturique dès la dose de” value (souris [2]) was ≥ 12,5 mg.kg^-1, the “test à l'oxotrémorine” value (souris [3]) was “modifie de façon peu nette” and the “antagonise l'hypermotilité amphétaminique à partir de (dose)” value (souris [4]) was ≥ 12,5 mg.kg^-1. The “pression artérielle du rat normotendu” value (rat normotendu) was “sans modifier”, the “rythme cardiaque du rat normotendu” value (rat normotendu) was “augmente significativement” and the “anti-inflammatoire sur le test à la carraghénine D.E.so” value (rat) was 38 mg/kg. For the same molecule, the “test de la yohimbine” value (souris [5]) was “inactif”, the “activité analgésique "plaque chauffante" D.E.50” value (souris [6]) was 6 mg/kg and the “activité analgésique au test à la P.B.Q.” value (souris [7]) was “faible”. The LD50 (Acute toxicity (DL 50); ip, I.P.) was 482 mg/kg, the “hypothermie uniquement à forte dose” value (souris [8]) was 50 mg/kg and the “test à l'apomorphine” value (souris [9]) was “inactif”. The “diminue la motilité spontanée D.E.50” value (souris [10]) was 10 mg/kg, the ED50 (souris [11]) was 27 mg/kg and the “incoordination motrice uniquement à forte dose” value (souris [12]) was 50 mg/kg. The minimal effective dose ([1]; po, P.O.) was 2 mg/kg, the fréquence cardiaque ([1]; administration P.O.) was “n'est pas modifiée de manière significative” and the action antihypertensive ([1]; administration répétée sur 5 jours, 1,5 mg.kg^-1 P.O.) was “confirment l'action antihypertensive”. For the same molecule, the “diminue la pression artérielle du rat spontanément hypertendu (S.H.R.) D.E.so” value ([1]; administration unique, I.P.) was 1,9 mg.kg^-1, the “action antihypertensive D.E.50” value ([1]; administration unique, P.O.) was 2 mg/kg and the “activité antihypertensive (dose)” value ([1]; per os, rat SHR printed for MP 440 only) was 2 mg/kg.
In the case of `CC(=NNC(=O)C(C)O)c1ccccc1Cl` (stereo not shown) [Exemple 3, (hydroxy-2 propanoyl)-1 (orthochlorophényl-1 éthylidène-1)-2 hydrazine], the LD50 (Acute toxicity (DL 50); ip, I.P.) is reported as 240 mg/kg and the minimal effective dose ([1]; ip, I.P.) is reported as 12.5 mg/kg.
`CC(=NNC(=O)CN)c1ccccc1Cl` [Exemple 7, (amino-2 acétyl)-1 (orthochlorophényl-1 éthylidène-1)-2 hydrazine] showed an LD50 (Acute toxicity (DL 50); ip, I.P.) of 143 mg/kg and a minimal effective dose ([1]; po, P.O.) of 2 mg/kg.
`COCC(=O)NN=C(C)c1ccccc1Cl` [Exemple 6, (méthoxy-2 acétyl)-1 (orthochlorophényl-1 éthylidène-1)-2 hydrazine] showed an LD50 (Acute toxicity (DL 50); ip, I.P.) of 200 mg/kg and a minimal effective dose ([1]; ip, I.P.) of 6.25 mg/kg.
`CC(=NNC(=O)C(N)=O)c1ccccc1Cl` [Exemple 9, oxamoyl-1 (orthochlorophényl-1 éthylidène-1)-2 hydrazine] showed an LD50 (Acute toxicity (DL 50); ip, I.P.) of over 400 mg/kg and a minimal effective dose ([1]; ip, I.P.) of 12.5 mg/kg.

Reference: patent EP0294258A1, “Hydrazine derivatives, process for obtaining them and pharmaceutical composition containing them” (priority 1987, dated 1988)
